{
  "source": "patent US20230313181A1",
  "about": "“HISTIDINE-LYSINE POLYMERS AND METHODS FOR DELIVERING MRNA USING THE SAME” (UNIVERSITY OF MARYLAND, BALTIMORE, priority 2019, published 2023)",
  "key": {"[1]": {"test": "Cell viability assay (trypan blue exclusion)", "type": "cell-based", "settings": "human, MDA-MB-231 cells, HK polymer 4 μg or polyplex (4 μg HK; 1 μg mRNA), then 19 h DMEM/10% FBS", "procedure": "Cell Viability Assay. MDA-MB-231 cells were seeded at 5.0×10^4/well in a 24-tissue culture plate and incubated overnight in DMEM supplemented with 10% FBS serum. The media was then changed to Opti-MEM and the cells were treated with either the HK polymer (4 μg) or the HK polyplex (4 μg HK; 1 μg mRNA) for 5 h. After the media was changed to DMEM/10% FBS for 19 h, the cell viability was measured using the trypan blue cell exclusion assay (Trypan Blue solution, 0.4%, Sigma-Aldrich, St. Louis, MO).\nAfter the medium was changed to Opti-MEM in cell cultures of the MDA-MB-231 cells used in the experiment described above, either the HK polymer (4 μg) or the HK polyplex (4 μg HK; 1 μg mRNA) was added dropwise to the cells and incubated for 5 h. The media was then changed to DMEM/10% FBS for 19 h and cell viability was determined using the trypan cell exclusion assay."}, "cytokines": {"tested_on": "cytokines", "settings": "in vitro and in vivo; prior study [45]; cited from earlier work"}, "MDA-MB-231 cells": {"tested_on": "MDA-MB-231 cells", "test": "In vitro mRNA transfection with HK polyplexes (luciferase mRNA, luciferase activity)", "type": "cell-based", "settings": "mRNA 1 μg, 24 h", "procedure": "FIG. 1. Comparison of H3K(+H)4b and H3K4b peptides as carriers of mRNA. To form the HK polyplexes, the mRNA (1 μg) was mixed with 3 different ratios of the HK ([…]) polymer for 30 minutes. The HK polyplexes were then added to the cells for 24 h before the luciferase activity was measured. ****, H3K(+H)4b vs H3K4b, P<0.0001.\nIn vitro mRNA Transfection. Several HK polymers were examined for their ability to carry a luciferase-expressing mRNA (CleanCap Firefly Luciferase mRNA, Trilink Biotechnologies, Inc, San Diego, CA) into MDA-MB-231 cells (America Type Tissue Culture, Manassas, VA). In brief, 3×10^4 cells were plated into a 24-well plate containing 500 μl of DMEM and 10% fetal bovine serum (ThermoFisher Scientific, Waltham, MA). After 24 h, when the cells were 60 to 80% confluent, the media in each well was changed to Opti-MEM (ThermoFisher Scientific). To prepare HK polyplexes, mRNA (1 μg) in 50 μl of Opti-MEM was briefly mixed well with one of the HK polymers (4 to 12 μg) and maintained at room temperature for 30 min. This polyplex was then added dropwise to the cells. After four h, the Opti-MEM media was removed and replaced with 0.5 ml of DMEM/10% serum (0.5 ml). Twenty-four hours later, the cells were lysed, and the luciferase activity (Promega Corporation, Madison, WI) was measured.\nTo obtain the data in Table 4, luciferase-expressing mRNA (1 μg) in 50 μl of Opti-MEM was briefly mixed with one of the HK polymers (4, 8, or 12 μg) and maintained at room temperature for 30 min. The resulting polyplexes were added dropwise to the MDA-NM-231 cells and after four h, the Opti-MEM media was removed and replaced with DMEM/10% serum. Twenty-four hours later, the cells were lysed, and the luciferase activity was measured"}, "[2]": {"settings": "prior studies [34, 35, 45]; cited from earlier work"}, "[3]": {"test": "Acid-base titration of HK polymer solutions", "type": "physicochemical", "settings": "pH titration curves, 5 mg/ml", "procedure": "FIG. 2. Titration of different HK peptide solutions. Solutions of polymers (5 mg/ml) (H2K4b, H3K4b, H3K(+H)4b, and H4K4b) were adjusted to pH 3 (initial volume—1 ml) and then […] aliquots of 0.05 N NaOH were stepwise added and the pH measured.\nAcid-Base Titration. After polymer solutions (e.g. containing one or more of H2K4b, H3K4b, H3K(+H)4b, and H4K4b) were adjusted to pH 3.0 (5 mg/mil; initial volume—1 mil), aliquots (5 μl) of NaOH (0.05 N) were stepwise added with the pH measured (FiveEasy™ meter; InLab Solids Pro-ISM pH electrode, Mettler Toledo, Columbus, OH). Titration was stopped at about pH 9.0."}, "[4]": {"test": "Particle size, polydispersity index (PDI) and zeta potential of polyplexes (Zetasizer)", "type": "physicochemical", "procedure": "Particle size, polydispersity index (PDI), and zeta potential. The size, PDI, and zeta potential were determined with the Zetasizer (Malvern, Westborough, Mass.) and analyzed with software provided by the instrument manufacturer (Zetasizer software, version 6.2). Using dynamic light scattering at a 90° angle, the size of the particles were reported as the Z-average diameter from the intensity-weighted size distribution. Prior to the measurements, the samples were equilibrated to 25° C. for 2 min. Each measurement had at least ten sub-runs under the automatic mode of the software. The particle size, PDI, and zeta potential data point represent the mean±SD of three measurements. After mixing HK peptides (4 μg) and mRNA (1 μg) in 100 μl of defined media (Opti-MEM, water, or DMEM/8% FBS) for 30 min, 100 μl of additional defined media was added to the polyplex solution (total volume 200 μl) to measure the size and PDI. To determine the zeta potential, 800 μl more of the media was added (total volume 1000 μl), mixed gently, and then added to the disposable zeta cell.\nBecause different stabilities were observed between the H3K4b and H3K(+H)4b polyplexes, whether the sizes of these polyplexes varied based on the media in which they were prepared was investigated. […] H3K(+H)4b and H3K4b peptides (4 μg) in complex with mRNA (1 μg) were mixed with either Opti-MEM, water, or DMEM/8% FBS […]. After 1 h, the size, PDI, and zeta potential were measured."}, "mRNA": {"tested_on": "mRNA", "test": "Heparin displacement assays (gel electrophoresis and Sybr Gold dye intercalation)", "type": "physicochemical", "settings": "HK:mRNA 4:1 wt/wt", "procedure": "FIG. 4. Heparin Displacement Assays. After HK polyplexes were formed (wt:wt; HK:mRNA; 4 μg:1 μg), different concentrations of heparin […] were incubated with these for 30 min. A. Gel Retardation. The HK polyplexes were loaded on the agarose gel (1%), and electrophoresis was carried out and stained with Sybr Gold. B. Fluorescent dye intercalation. After the HK polyplexes were formed and incubated with several concentrations of heparin, the Sybr Gold nucleic acid dye was incubated with the HK polyplexes for 5 mins. Fluorescence was then measured by a microplate fluorimeter (λex=497 nm, λem=520 nm) (SynergyMx, BioTek). *, P<0.05; ***, P<0.001; H3K4b or H2K vs. H3K(+H)4b.\nHeparin Displacement Assays. Heparin displacement assays of HK polyplexes were done with the dye intercalation assay and with gel electrophoresis. A fluorescent assay assessed polyplexes of HK polymer and mRNA (4:1 wt/wt ratio; polymer:mRNA) formed in RNAse/DNAase free water (Corning, Manassas, VA). HK polyplexes were prepared as described previously, followed by the addition of diluted Syber Gold. For detection, working dilutions of the polyplexes (1/5 of volume), water (3/5) and Sybr Gold dye (1/5, 0.2×) were incubated for 5 minutes, and fluorescence was measured by a fluorimeter (Ex=497 nm, Em=520 nm) (SynergyMx, BioTek, Winooski, VT). The control sample was prepared with the same amount of mRNA, water, and Sybr Gold dye. For the heparin displacement, instead of water, heparin salt (Sigma-Aldrich, St. Louis, MO) solutions at different concentrations (0.5, 1, 1.5, 2, 3 μg/μl) were used, and the HK polyplexes were incubated at 37° C. for 30 min before addition of Sybr Gold.\nDisplacement of mRNA from HK polyplexes with heparin was also done with gel electrophoresis. After HK polyplexes were formed, different concentrations of heparin (0.5, 1.0, 1.5, 2.0, 3.0 μg/μl; volume 20 μl) were incubated with these at 37° C. for 30 min. The polyplexes were then loaded on the agarose gel (1%; 10× BlueJuice Gel loading buffer), and electrophoresis was carried out and stained with SG as described above. […]"}, "[5]": {"settings": "polyplex HK 4 μg:mRNA 1 μg in DMEM/8% FBS"}, "[6]": {"settings": "polyplex HK 4 μg:mRNA 1 μg in Opti-MEM"}, "[7]": {"settings": "polyplex HK 4 μg:mRNA 1 μg in Water"}},
  "note": "Bridges are numbered along the chain shown (N, C = ends). Roman numbers before positions name the chains, in order. Where no end group is shown, it is not given here.",
  "data": [
    {"substance": "I: KHHHKHHHKHHHKHHHKKKK-NH2 / II: KHHHKHHHKHHHKHHHK / III: KHHHKHHHKHHHKHHHK / IV: KHHHKHHHKHHHKHHHK (amide I:18-IV:C, I:19-III:C, I:20-II:C) [H3K4b]", "values": [
      {"measurement": "viability at 5 h", "setting": "[1]", "result": 95.6, "unit": "%"},
      {"measurement": "cytokine induction by siRNA polyplex (in words)", "setting": "cytokines", "result": "induced cytokines to a significantly greater degree"},
      {"measurement": "RLU/μg-Protein (luciferase activity)", "setting": "MDA-MB-231 cells; ratio mRNA:polymer 1:4 (wt:wt)", "result": "156.8 ± 41.8", "unit": "RLU/μg-Protein"},
      {"measurement": "RLU/μg-Protein (luciferase activity)", "setting": "MDA-MB-231 cells; ratio mRNA:polymer 1:8 (wt:wt)", "result": "62.1 ± 13.2", "unit": "RLU/μg-Protein"},
      {"measurement": "RLU/μg-Protein (luciferase activity)", "setting": "MDA-MB-231 cells; ratio mRNA:polymer 1:12 (wt:wt)", "result": "18.1 ± 4.0", "unit": "RLU/μg-Protein"},
      {"measurement": "carrier of siRNA (in words)", "setting": "[2]", "result": "effective carriers of siRNA"},
      {"measurement": "buffering profile / buffering capacity (in words)", "setting": "[3]", "result": "minimal differences in their buffering profile"},
      {"measurement": "PDI", "setting": "[4]; [5]", "result": 0.421},
      {"measurement": "Size", "setting": "[4]; [5]", "result": "578 ± 80.5", "unit": "nm"},
      {"measurement": "Zeta Potential", "setting": "[4]; [5]", "result": "−12.1 ± 2.22", "unit": "mV"},
      {"measurement": "PDI", "setting": "[4]; [6]", "result": 0.466},
      {"measurement": "Size", "setting": "[4]; [6]", "result": "2030.7 ± 117.3", "unit": "nm"},
      {"measurement": "Zeta Potential", "setting": "[4]; [6]", "result": "−4.20 ± 2.78", "unit": "mV"},
      {"measurement": "PDI", "setting": "[4]; [7]", "result": 0.171},
      {"measurement": "Size", "setting": "[4]; [7]", "result": "199.9 ± 0.8", "unit": "nm"},
      {"measurement": "Zeta Potential", "setting": "[4]; [7]", "result": "16.47 ± 0.74", "unit": "mV"},
      {"measurement": "binding/release of mRNA and polyplex stability on exposure to heparin (in words)", "setting": "mRNA", "result": "released by the H3K4b polymer more readily than the H3K(+H)4b polymer"}
    ]}
  ]
}
